Columns and labels:
HT29 = test: cells; assay type: cell-based, human; conditions: for IC50: Homo sapiens, HT-29, 48 h, read-out: IC50, cellular anti-proliferative assay
HS 578T = test: cells; assay type: cell-based, human; conditions: for IC50: Homo sapiens, Hs-578T, 48 h, read-out: IC50, cellular anti-proliferative assay
MDA-MB-435 = test: cells; assay type: cell-based, human; conditions: for IC50: Homo sapiens, MDA-MB-435, 48 h, read-out: IC50, cellular anti-proliferative assay
SW-620 = test: cells; assay type: cell-based, human; conditions: for IC50: Homo sapiens, SW-620, 48 h, read-out: IC50, cellular anti-proliferative assay
M14 = test: cells; assay type: cell-based, human; conditions: for IC50: Homo sapiens, M14, 48 h, read-out: IC50, cellular anti-proliferative assay
CDK9/cyclin T1 = molecular target: T1, CDK9/cyclin T1 (Homo sapiens, UniProt P50750); test: biochemical
T1 construct: C-terminal 6His-tagged, full-length recombinant, human cdk9 (MW=44 kDa); made in house; host or cells: Sf21 insect cells (baculovirus)
T1 sequence (P50750 whole entry): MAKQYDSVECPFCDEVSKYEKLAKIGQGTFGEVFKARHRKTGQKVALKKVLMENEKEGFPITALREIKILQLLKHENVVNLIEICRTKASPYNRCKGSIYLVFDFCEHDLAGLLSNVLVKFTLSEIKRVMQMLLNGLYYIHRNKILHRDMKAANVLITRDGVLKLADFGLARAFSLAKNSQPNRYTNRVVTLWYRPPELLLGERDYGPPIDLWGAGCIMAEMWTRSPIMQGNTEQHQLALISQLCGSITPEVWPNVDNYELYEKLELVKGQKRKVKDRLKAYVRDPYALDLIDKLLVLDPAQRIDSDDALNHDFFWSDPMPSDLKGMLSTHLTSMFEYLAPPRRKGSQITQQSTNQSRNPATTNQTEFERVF
T1 sequence (O60563 whole entry partner): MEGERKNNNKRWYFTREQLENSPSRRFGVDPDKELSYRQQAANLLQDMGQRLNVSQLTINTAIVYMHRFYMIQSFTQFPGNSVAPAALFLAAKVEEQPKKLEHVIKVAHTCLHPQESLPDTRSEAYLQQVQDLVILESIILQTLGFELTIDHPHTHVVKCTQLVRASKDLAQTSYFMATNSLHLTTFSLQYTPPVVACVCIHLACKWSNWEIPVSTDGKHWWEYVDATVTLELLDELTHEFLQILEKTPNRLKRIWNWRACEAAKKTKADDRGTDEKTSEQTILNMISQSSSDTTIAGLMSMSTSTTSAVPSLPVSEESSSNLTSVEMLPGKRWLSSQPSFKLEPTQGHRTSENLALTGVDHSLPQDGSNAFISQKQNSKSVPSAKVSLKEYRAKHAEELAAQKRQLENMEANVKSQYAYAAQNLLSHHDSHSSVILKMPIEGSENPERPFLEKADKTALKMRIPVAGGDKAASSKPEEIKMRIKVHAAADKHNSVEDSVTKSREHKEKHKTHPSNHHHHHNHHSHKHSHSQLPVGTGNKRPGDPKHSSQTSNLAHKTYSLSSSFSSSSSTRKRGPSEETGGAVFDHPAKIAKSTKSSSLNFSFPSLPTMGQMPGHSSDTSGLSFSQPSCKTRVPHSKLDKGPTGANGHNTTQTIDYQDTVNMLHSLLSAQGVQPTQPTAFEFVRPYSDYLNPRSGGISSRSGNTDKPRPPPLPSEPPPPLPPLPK

NCI-H322M = test: cells; assay type: cell-based, human; conditions: for IC50: Homo sapiens, NCI-H322M, 48 h, read-out: IC50, cellular anti-proliferative assay
CDK3/cyclin E = molecular target: T2, CDK3/cyclin E (Homo sapiens, UniProt Q00526); test: biochemical
T2 construct: C-terminal 6His-tagged recombinant human full-length cdk3 (MW=36 kDa); made in house; host or cells: Sf21 insect cells (baculovirus)
T2 sequence (Q00526 whole entry): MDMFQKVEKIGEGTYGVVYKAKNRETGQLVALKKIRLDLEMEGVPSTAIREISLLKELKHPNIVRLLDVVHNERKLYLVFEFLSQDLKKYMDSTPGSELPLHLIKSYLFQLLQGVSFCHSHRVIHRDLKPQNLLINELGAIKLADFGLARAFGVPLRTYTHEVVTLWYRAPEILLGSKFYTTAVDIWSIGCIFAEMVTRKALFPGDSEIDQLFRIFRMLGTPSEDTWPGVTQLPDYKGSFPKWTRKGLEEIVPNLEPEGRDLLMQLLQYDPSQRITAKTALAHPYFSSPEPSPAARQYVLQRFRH
T2 sequence (P24864 whole entry, further chain): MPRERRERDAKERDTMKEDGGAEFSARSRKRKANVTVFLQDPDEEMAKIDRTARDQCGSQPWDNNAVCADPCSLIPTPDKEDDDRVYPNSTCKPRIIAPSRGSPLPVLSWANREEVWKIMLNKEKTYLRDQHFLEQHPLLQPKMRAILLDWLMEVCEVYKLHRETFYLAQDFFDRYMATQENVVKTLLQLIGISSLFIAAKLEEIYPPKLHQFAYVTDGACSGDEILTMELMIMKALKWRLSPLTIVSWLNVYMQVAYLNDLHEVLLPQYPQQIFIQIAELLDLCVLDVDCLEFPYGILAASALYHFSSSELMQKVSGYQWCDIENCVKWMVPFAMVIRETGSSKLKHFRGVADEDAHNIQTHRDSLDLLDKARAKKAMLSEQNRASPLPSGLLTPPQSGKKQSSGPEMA

RPMI-8226 = test: cells; assay type: cell-based, human; conditions: for IC50: Homo sapiens, RPMI-8226, 48 h, read-out: IC50, cellular anti-proliferative assay
CDK2/cyclin E = molecular target: T3, CDK2/cyclin E (Homo sapiens, UniProt P24941); test: biochemical
T3 construct: C-terminal 6His-tagged, recombinant full-length CDK2 (MW=34 kDa); made in house; host or cells: Sf21 insect cells (baculovirus)

KM12 = test: cells; assay type: cell-based, human; conditions: for IC50: Homo sapiens, KM12, 48 h, read-out: IC50, cellular anti-proliferative assay
MDA-MB-231 = test: cells; assay type: cell-based, human; conditions: for IC50: Homo sapiens, MDA-MB-231, 48 h, read-out: IC50, cellular anti-proliferative assay
IGROV1 = test: cells; assay type: cell-based, human; conditions: for IC50: Homo sapiens, IGROV-1, 48 h, read-out: IC50, cellular anti-proliferative assay

CC(C)(C)c1cnc(CSc2cnc(NC(=O)Cc3ccc(N(CCCl)CCCl)cc3)s2)o1 [CY-201, 2-(4-(bis(2-chloroethyl)amino)phenyl)-N-(5-((5-tert-butyloxazol-2-yl)methylthio)thiazol-2-yl)acetamide]
Ratio (HT29): 1227.4 | IC50 (HT29): 0.107 µM | Ratio (HS 578T): 1273.5 | IC50 (HS 578T): 0.148 µM | Ratio (MDA-MB-435): 1577.6 | fold more potent than the parental drug Chlorambucil (MDA-MB-435): more than 1,500 fold | IC50 (MDA-MB-435): 0.079 µM | Ratio (SW-620): 895.4 | IC50 (SW-620): 0.098 µM | Ratio (M14): 1083.9 | IC50 (M14): 0.058 µM | IC50 (CDK9/cyclin T1): 90.4 nM | Ratio (NCI-H322M): 1380.4 | IC50 (NCI-H322M): 0.148 µM | IC50 (CDK3/cyclin E): 45.6 nM | Ratio (RPMI-8226): 280.5 | IC50 (RPMI-8226): 0.269 µM | IC50 (CDK2/cyclin E): 2.7 nM | Ratio (KM12): 1570.4 | IC50 (KM12): 0.091 µM | Ratio (MDA-MB-231): 727.8 | IC50 (MDA-MB-231): 0.219 µM | Ratio (IGROV1): 1088.9 | IC50 (IGROV1): 0.107 µM

O=C(O)CCCc1ccc(N(CCCl)CCCl)cc1 [Chlorambucil, reference compound]
IC50 (HT29): 132 µM | IC50 (HS 578T): 188 µM | IC50 (MDA-MB-435): 125 µM | IC50 (SW-620): 87.5 µM | IC50 (M14): 62.4 µM | CDK IC50, CDK9/cyclin T1 (Chlorambucil) (CDK9/cyclin T1): No activity | IC50 (NCI-H322M): 204 µM | CDK IC50, CDK3/cyclin E (Chlorambucil) (CDK3/cyclin E): No activity | IC50 (RPMI-8226): 75.5 µM | CDK IC50, CDK2/cyclin E (Chlorambucil) (CDK2/cyclin E): No activity | IC50 (KM12): 143 µM | IC50 (MDA-MB-231): 159 µM | IC50 (IGROV1): 117 µM
